{
  "source": "patent US8802597B2",
  "about": "“Herbicidal pyrimidines” (E I du Pont de Nemours and Company, priority 2003, dated 2014)",
  "assay_type_in_all_cases": "in vivo",
  "key": {"[1]": {"system": "rice flatsedge (Cyperus iria)", "assay": "Test E flooded paddy water application", "details": "Flood, 21 days, scale 0 to 100 (0 no effect, 100 complete control)", "outline": "(§1)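 Weeds sown in sterilized Tama silt loam (2.6% organic matter), greenhouse 29.5/26.7° C, 16-h photoperiod; at 2.0–2.5-leaf stage pots flooded to 3 cm and compound added to paddy water. Visual rating vs untreated controls after 21 days, 0 (no effect) to 100 (complete control).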"}, "[2]": {"system": "early watergrass (Echinochloa oryzoides)", "assay": "Test E flooded paddy water application", "details": "Flood, 21 days, scale 0 to 100 (0 no effect, 100 complete control)", "outline": "as §1"}, "[3]": {"system": "ducksalad (Heteranthera limosa)", "assay": "Test E flooded paddy water application", "details": "Flood, 21 days, scale 0 to 100 (0 no effect, 100 complete control)", "outline": "as §1"}, "[4]": {"system": "transplanted rice seedlings (Oryza sativa cv. ‘Japonica-M202’)", "assay": "Test E flooded paddy water application", "details": "Flood, 21 days, scale 0 to 100 (0 no effect, 100 complete control)", "outline": "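Greenhouse pots of Tama silt loam with weeds and rice at 2.0–2.5-leaf stage, flooded to 3 cm; compounds applied directly into paddy water, depth maintained. Visual rating versus untreated controls after 21 days, 0 (no effect) to 100 (complete control); 29.5/26.7 °C, 16-h photoperiod.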"}, "[5]": {"system": "purple redstem (Ammannia coccinea)", "assay": "Test E flooded paddy water application", "details": "Flood, 21 days, scale 0 to 100 (0 no effect, 100 complete control)", "outline": "as §1"}, "[6]": {"system": "barnyardgrass (Echinochloa crus-galli)", "assay": "Test E flooded paddy water application", "details": "Flood, 21 days, scale 0 to 100 (0 no effect, 100 complete control)", "outline": "as §1"}, "[7]": {"system": "junglerice (Echinochloa colona)", "assay": "Test E flooded paddy water application", "details": "Flood, 21 days, scale 0 to 100 (0 no effect, 100 complete control)", "outline": "as §1"}, "[8]": {"system": "bearded (brdd.) sprangletop (Leptochloa fusca ssp. fascicularis)", "assay": "Test E flooded paddy water application", "details": "Flood, 21 days, scale 0 to 100 (0 no effect, 100 complete control)", "outline": "as §1"}, "[9]": {"system": "water seeded rice seedlings (Oryza sativa cv. ‘Japonica-M202’)", "assay": "Test E flooded paddy water application", "details": "Flood, 21 days, scale 0 to 100 (0 no effect, 100 complete control)", "outline": "as §1"}, "[10]": {"system": "smallflower umbrella sedge (Cyperus difformis)", "assay": "Test E flooded paddy water application", "details": "Flood, 21 days, scale 0 to 100 (0 no effect, 100 complete control)", "outline": "as §1"}, "[11]": {"system": "late watergrass (Echinochloa oryzicola)", "assay": "Test E flooded paddy water application", "details": "Flood, 21 days, scale 0 to 100 (0 no effect, 100 complete control)", "outline": "as §1"}, "[12]": {"system": "morningglory (Ipomoea spp.)", "assay": "Test A pre/postemergence", "outline": "(§2)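 Soil: loam blended with sand. Formulation: non-phytotoxic solvent mixture with surfactant. Timing: preemergence soil spray plus concurrent postemergence spray (plants 2–10 cm, 1–2 leaves). Readout: visual injury versus untreated controls at ~10 days, 0–100.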"}, "[13]": {"system": "velvetleaf (Abutilon theophrasti)", "assay": "Test A pre/postemergence", "outline": "as §2"}, "[14]": {"system": "giant foxtail (Setaria faberi)", "assay": "Test A pre/postemergence", "outline": "as §2"}, "[15]": {"system": "barnyardgrass (Echinochloa crus-galli)", "assay": "Test A pre/postemergence", "outline": "as §2"}, "[16]": {"system": "redroot pigweed (Amaranthus retroflexus)", "assay": "Test A pre/postemergence", "outline": "as §2"}, "[17]": {"system": "crabgrass (Digitaria sanguinalis)", "assay": "Test A pre/postemergence", "outline": "as §2"}, "[18]": {"details": "Postemergence, 125 g ai/ha, 0 to 100 scale (0 no effect, 100 complete control)"}, "[19]": {"details": "Postemergence, 500 g ai/ha, 0 to 100 scale (0 no effect, 100 complete control)"}, "[20]": {"details": "Preemergence, 125 g ai/ha, 0 to 100 scale where 0 is no effect and 100 is complete control, approximately ten days"}, "[21]": {"details": "Preemergence, 500 g ai/ha, 0 to 100 scale where 0 is no effect and 100 is complete control, approximately ten days"}},
  "data": [
    {"smiles": "CCOC(=O)c1nc(-c2ccc(C)c(C)c2)nc(N)c1Br", "note": "[Compound 70]", "values": [
      {"measurement": "Flatsedge, Rice plant response rating", "setting": "[1]; 32 g ai/ha", "value": 0},
      {"measurement": "Flatsedge, Rice plant response rating", "setting": "[1]; 64 g ai/ha", "value": 0},
      {"measurement": "Flatsedge, Rice plant response rating", "setting": "[1]; 125 g ai/ha", "value": 30},
      {"measurement": "Flatsedge, Rice plant response rating", "setting": "[1]; 250 g ai/ha", "value": 65},
      {"measurement": "Plant response rating, Flatsedge, Rice", "setting": "[1]; 16 g ai/ha", "value": 0},
      {"measurement": "Watergrass, Early plant response rating", "setting": "[2]; 32 g ai/ha", "value": 0},
      {"measurement": "Watergrass, Early plant response rating", "setting": "[2]; 64 g ai/ha", "value": 0},
      {"measurement": "Watergrass, Early plant response rating", "setting": "[2]; 125 g ai/ha", "value": 0},
      {"measurement": "Watergrass, Early plant response rating", "setting": "[2]; 250 g ai/ha", "value": 0},
      {"measurement": "Plant response rating, Watergrass, Early", "setting": "[2]; 16 g ai/ha", "value": 0},
      {"measurement": "Ducksalad plant response rating", "setting": "[3]; 32 g ai/ha", "value": 40},
      {"measurement": "Ducksalad plant response rating", "setting": "[3]; 64 g ai/ha", "value": 100},
      {"measurement": "Ducksalad plant response rating", "setting": "[3]; 125 g ai/ha", "value": 100},
      {"measurement": "Ducksalad plant response rating", "setting": "[3]; 250 g ai/ha", "value": 100},
      {"measurement": "Plant response rating, Ducksalad", "setting": "[3]; 16 g ai/ha", "value": 0},
      {"measurement": "Rice, Transplanted plant response rating", "setting": "[4]; 32 g ai/ha", "value": 0},
      {"measurement": "Rice, Transplanted plant response rating", "setting": "[4]; 64 g ai/ha", "value": 0},
      {"measurement": "Rice, Transplanted plant response rating", "setting": "[4]; 125 g ai/ha", "value": 0},
      {"measurement": "Rice, Transplanted plant response rating", "setting": "[4]; 250 g ai/ha", "value": 0},
      {"measurement": "Plant response rating, Rice, Transplanted", "setting": "[4]; 16 g ai/ha", "value": 0},
      {"measurement": "Redstem plant response rating", "setting": "[5]; 32 g ai/ha", "value": 0},
      {"measurement": "Redstem plant response rating", "setting": "[5]; 64 g ai/ha", "value": 0},
      {"measurement": "Redstem plant response rating", "setting": "[5]; 125 g ai/ha", "value": 0},
      {"measurement": "Redstem plant response rating", "setting": "[5]; 250 g ai/ha", "value": 0},
      {"measurement": "Plant response rating, Redstem", "setting": "[5]; 16 g ai/ha", "value": 0},
      {"measurement": "Barnyardgrass plant response rating", "setting": "[6]; 32 g ai/ha", "value": 0},
      {"measurement": "Barnyardgrass plant response rating", "setting": "[6]; 64 g ai/ha", "value": 0},
      {"measurement": "Barnyardgrass plant response rating", "setting": "[6]; 125 g ai/ha", "value": 0},
      {"measurement": "Barnyardgrass plant response rating", "setting": "[6]; 250 g ai/ha", "value": 0},
      {"measurement": "Plant response rating, Barnyardgrass", "setting": "[6]; 16 g ai/ha", "value": 0},
      {"measurement": "Junglerice plant response rating", "setting": "[7]; 32 g ai/ha", "value": 0},
      {"measurement": "Junglerice plant response rating", "setting": "[7]; 64 g ai/ha", "value": 0},
      {"measurement": "Junglerice plant response rating", "setting": "[7]; 125 g ai/ha", "value": 0},
      {"measurement": "Junglerice plant response rating", "setting": "[7]; 250 g ai/ha", "value": 0},
      {"measurement": "Plant response rating, Junglerice", "setting": "[7]; 16 g ai/ha", "value": 0},
      {"measurement": "Sprangletop, Brdd. plant response rating", "setting": "[8]; 32 g ai/ha", "value": 0},
      {"measurement": "Sprangletop, Brdd. plant response rating", "setting": "[8]; 64 g ai/ha", "value": 0},
      {"measurement": "Sprangletop, Brdd. plant response rating", "setting": "[8]; 125 g ai/ha", "value": 0},
      {"measurement": "Sprangletop, Brdd. plant response rating", "setting": "[8]; 250 g ai/ha", "value": 0},
      {"measurement": "Plant response rating, Sprangletop, Brdd.", "setting": "[8]; 16 g ai/ha", "value": 0},
      {"measurement": "Rice, Water Seeded plant response rating", "setting": "[9]; 32 g ai/ha", "value": 0},
      {"measurement": "Rice, Water Seeded plant response rating", "setting": "[9]; 64 g ai/ha", "value": 0},
      {"measurement": "Rice, Water Seeded plant response rating", "setting": "[9]; 125 g ai/ha", "value": 0},
      {"measurement": "Rice, Water Seeded plant response rating", "setting": "[9]; 250 g ai/ha", "value": 0},
      {"measurement": "Plant response rating, Rice, Water Seeded", "setting": "[9]; 16 g ai/ha", "value": 0},
      {"measurement": "Sedge, Umbrella plant response rating", "setting": "[10]; 32 g ai/ha", "value": 0},
      {"measurement": "Sedge, Umbrella plant response rating", "setting": "[10]; 64 g ai/ha", "value": 0},
      {"measurement": "Sedge, Umbrella plant response rating", "setting": "[10]; 125 g ai/ha", "value": 0},
      {"measurement": "Sedge, Umbrella plant response rating", "setting": "[10]; 250 g ai/ha", "value": 60},
      {"measurement": "Plant response rating, Sedge, Umbrella", "setting": "[10]; 16 g ai/ha", "value": 0},
      {"measurement": "Watergrass, Late plant response rating", "setting": "[11]; 32 g ai/ha", "value": 0},
      {"measurement": "Watergrass, Late plant response rating", "setting": "[11]; 64 g ai/ha", "value": 0},
      {"measurement": "Watergrass, Late plant response rating", "setting": "[11]; 125 g ai/ha", "value": 0},
      {"measurement": "Watergrass, Late plant response rating", "setting": "[11]; 250 g ai/ha", "value": 0},
      {"measurement": "Plant response rating, Watergrass, Late", "setting": "[11]; 16 g ai/ha", "value": 0},
      {"measurement": "Plant response rating, Morningglory", "setting": "[12]; [18]", "value": 0},
      {"measurement": "Plant response rating, Morningglory", "setting": "[12]; [19]", "value": 10},
      {"measurement": "Plant response rating, Morningglory", "setting": "[12]; [20]", "value": 0},
      {"measurement": "Plant response rating, Morningglory", "setting": "[12]; [21]", "value": 0},
      {"measurement": "Plant response rating, Velvetleaf", "setting": "[13]; [18]", "value": 35},
      {"measurement": "Plant response rating, Velvetleaf", "setting": "[13]; [19]", "value": 60},
      {"measurement": "Plant response rating, Velvetleaf", "setting": "[13]; [20]", "value": 20},
      {"measurement": "Plant response rating, Velvetleaf", "setting": "[13]; [21]", "value": 35},
      {"measurement": "Plant response rating, Foxtail, Giant", "setting": "[14]; [18]", "value": 0},
      {"measurement": "Plant response rating, Foxtail, Giant", "setting": "[14]; [19]", "value": 0},
      {"measurement": "Plant response rating, Foxtail, Giant", "setting": "[14]; [20]", "value": 5},
      {"measurement": "Plant response rating, Foxtail, Giant", "setting": "[14]; [21]", "value": 5},
      {"measurement": "Plant response rating, Barnyardgrass", "setting": "[15]; [18]", "value": 0},
      {"measurement": "Plant response rating, Barnyardgrass", "setting": "[15]; [19]", "value": 0},
      {"measurement": "Plant response rating, Barnyardgrass", "setting": "[15]; [20]", "value": 0},
      {"measurement": "Plant response rating, Barnyardgrass", "setting": "[15]; [21]", "value": 0},
      {"measurement": "Plant response rating, Pigweed", "setting": "[16]; [18]", "value": 15},
      {"measurement": "Plant response rating, Pigweed", "setting": "[16]; [19]", "value": 20},
      {"measurement": "Plant response rating, Pigweed", "setting": "[16]; [20]", "value": 0},
      {"measurement": "Plant response rating, Pigweed", "setting": "[16]; [21]", "value": 10},
      {"measurement": "Plant response rating, Crabgrass", "setting": "[17]; [18]", "value": 0},
      {"measurement": "Plant response rating, Crabgrass", "setting": "[17]; [19]", "value": 20},
      {"measurement": "Plant response rating, Crabgrass", "setting": "[17]; [20]", "value": 5},
      {"measurement": "Plant response rating, Crabgrass", "setting": "[17]; [21]", "value": 20}
    ]}
  ]
}
